Test system: mouse cerebellar granular neurons
Experiment: Neurite outgrowth assay
Format: cell-based
Details: 30 μg/ml peptide; for average neurite length: 24 h in culture
Method: For neurite outgrowth assays, chick Ng-CAM was purified from chick brain using an antibody-based affinity column according to techniques well known in the art. The anti-Ng-CAM antibody was antibody 8D9 (Developmental Studies Hybridoma Bank, University of Iowa). Then purified chick Ng-CAM (50 μg/ml) or mouse laminin (Invitrogen, 100 μg/ml) was spotted on a 35 mm plastic culture dish at room temperature (RT) for 1 hr. After washing with PBS, the plastic surface was blocked with 1% Bovine Serum Albumin in phosphate buffered saline (13SA/PBS) at RT. Negative control dishes were coated with 1% Bovine Serum Albumin in phosphate buffered saline (BSA/PBS) at RT.
Cerebellar cells were prepared from postnatal day 4 (P4) mouse by trypsinization followed by trituration. Postnatal day 4 (P4) mouse cerebellum was minced in Calcium/Magnesium-free phosphate buffer (Ca/Mg-free PBS). Minced cerebellum was then treated with 0.05% Trypsin (Gibco) in Ca/Mg-free PBS for 15 minutes at 37° C. Trypsinization was halted by addition of 10% Fetal Calf Serum (Hyclone). Trypsinized cells were then triturated 5 times with a fire-polished Pasteur pipette to dissociate the cells. The remaining cell clumps were allowed to settle, and the suspended cells were plated and maintained for use in the neurite outgrowth assays.
Cultured cerebellar cells were resuspended in BME/B-27 medium (BME medium plus B-27 supplement, both from Gibco) supplemented with penicillin/streptomycin (Gibco) to a cell density of 5×10^5 cells/ml. Then 250 μl of this cell suspension was plated on the dishes. AP-YF or AP-Scramble peptides dissolved in Hank's Balanced Salt Solution (Gibco) were added to the plated cells at final concentration of 30 μg/ml. Cultures were incubated at 37° C. for 24 hrs in 5% CO2. These cultures were fixed with 4% paraformaldehyde and images were collected on a Zeiss Axiovert 100TV microscope using a 100× plan neofluor objective. Neurite outgrowth measurements were performed using NIH image software. Data was expressed as average neurite length in μm (+/− standard deviation). P-values were determined using Student's t-test analysis. Microsoft Excel was used to plot the data as % neurites of length greater than Xpm versus neurite length X (in μm).
Mouse cerebellar granular neurons were plated on tissue culture dishes coated with chick Ng-CAM, a chick homolog of L1-CAM, or on tissue culture dishes coated with mouse laminin. The Ng-CAM substrate interacts with cell-surface L1-CAM, while laminin substrate interacts with cell surface integrins and therefore serves as the negative control. These cultures were treated with either AP-YF or AP-Scramble peptides. After 24 hours of culture, the neurons were fixed and neurite outgrowth lengths w-ere measured by NIH image software degree (in μm).

| Sequence | neurite extension above control levels (on Ng-CAM substrate, 24 h, vs AP-Scramble) [%] | average neurite length (on Ng-CAM substrate) [μm] | axon extension on laminin (on laminin substrate, 24 h, vs AP-Scramble) |
| --- | --- | --- | --- |
| RQIKIWFQNRRMKWKKQFNEDGSFIGQF [AP-YF] | 55 | 32 | not significantly affected |
| RQIKIWFQNRRMKWKKFQGIFSGDENFQ [AP-Scramble] |  | 21 |  |

Reference: patent publication US7737250B2, “Peptides for treating axonal damage, inhibition of neurotransmitter release and pain transmission, and blocking calcium influx in neurons” (Mount Sinai School of Medicine of New York University, priority 2003, dated 2010)
